Data set [1] deals with Trypanosoma cruzi. Put plainly: Antitrypanosomal activity against Trypanosoma cruzi Tulahuen strain C2C4 trypomastigotes infected in rat L6 cells incubated for 96 hrs by photometric method based assay. The class given is functional, organism-based. Conditions: Tulahuen strain C2C4, L6, 96 h.
Another data set deals with L6. Kind of data set: Cytotoxicity against rat L6 cells incubated for 70 hrs by resazurin dye based assay. Conditions: L6, 70 h. The class given is cell-based. For orientation: The colour change of resazurin is a common sign of viable cells or microbes.
Data set [2] is described as follows: Selectivity ratio, EC50 for cytotoxicity against rat L6 cells to EC50 for antitrypanosomal activity against Trypanosoma cruzi Tulahuen strain C2C4 trypomastigotes infected in rat L6 cells. The class given is toxicity, cell-based. Conditions: read-out: Ratio EC50.
A short description of data set [3]: Kinetic aqueous solubility of compound in DMSO by nephelometric analysis. The class given is physicochemical. Conditions: read-out: Kinetic_solubility.
Data set [4] can be described thus: Intrinsic clearance in CD1 mouse liver microsomes at 0.5 uM measured up to 30 mins in presence of NADPH by UPLC-MSMS analysis. It counts as ADME, Microsome. Conditions: 0.5 h.
The nature of data set [5]: Fraction unbound in NMRI mouse plasma at 30 mg/kg, iv by UPLC-MS/MS analysis. The class given is ADME, organism-based.
The nature of data set [6]: Toxicity in ip dosed BALB/c mouse model of acute chagas disease assessed as maximum tolerated dose. The class given is organism-based. Conditions: in vivo.
Data set [7] concerns Trypanosoma cruzi. Kind of data set: Antitrypanosomal activity against Trypanosoma cruzi Brazil strain trypomastigotes coexpressing luciferase infected in BALB/c mouse model of acute chagas disease assessed as reduction in parasite level at 30 mg/kg, ip treated 3 days post infection and measured on day 5 and 10. It counts as functional, organism-based.
In data set [8] the test system is Trypanosoma cruzi. Put plainly: Antitrypanosomal activity against Trypanosoma cruzi Brazil strain trypomastigotes coexpressing luciferase infected in BALB/c mouse model of acute chagas disease assessed as reduction in parasite level at 30 mg/kg, po treated 3 days post infection and measured on day 5 and 10. The class given is functional, organism-based.

Consider 22 compounds from ChEMBL document CHEMBL4402577, “Discovery and Optimization of a Compound Series Active against Trypanosoma cruzi, the Causative Agent of Chagas Disease” (J Med Chem, 2020).

In brackets after ≈: the same amount, converted by molar mass. Activity calls are given as the source filed them. The rule behind the calls is not given here. Some results are limits rather than exact numbers.

As a reminder, the EC50 is the concentration giving half of the maximal effect. In general, EC90 refers to the point of the concentration-response curve where the effect stands at 90%. Read a low EC90 as an effect from little substance. A word on the fraction unbound: it is free concentration divided by total concentration. Read a low fraction unbound as little free substance. By MTD is commonly meant the largest dose that counted as tolerated.

On to `CC[C@H]1CC[C@H](n2c(=O)[nH]c3ncc(NC(C)=O)cc3c2=O)CC1`, for which the figures for the concentration giving a half-maximal response (EC50) in the data set on Trypanosoma cruzi [1] and with L6 were 0.3 µM and 215 µM, respectively. Also, the selectivity ratio in data set [2] was 720. Also, in [3], the solubility kinetic stood at 22 µM (≈ 7.27 µg/mL). Also, the intrinsic clearance in data set [4] stood at 0.5 mL/min/g.

As for `CC(=O)Nc1ccc2[nH]c(=O)n(C3CCC(C)(C)CC3)c(=O)c2c1`, the EC50 with Trypanosoma cruzi [1] was 0.18 µM; in the data set on L6, 12 µM. In addition, in data set [2], the selectivity ratio stood at 67. Also, the solubility kinetic in data set [3] was 128 µM (≈ 42.2 µg/mL). In data set [4], the intrinsic clearance was 3.7 mL/min/g.

`CC[C@H]1CC[C@@H](n2c(=O)[nH]c3ccc(NC(C)=O)cc3c2=O)CC1`: the EC50 with Trypanosoma cruzi [1] is 0.085 µM; with L6 it was 39 µM. In addition, the selectivity ratio in [2] amounted to 460. Also, the solubility kinetic in [3] is 73 µM (≈ 24 µg/mL). Moreover, in data set [4], the intrinsic clearance came out at 12 mL/min/g.

Turning to `CC(C)[C@H]1CC[C@@H](n2c(=O)[nH]c3ncc(N)cc3c2=O)CC1`, the figures for the EC50 in the data set on Trypanosoma cruzi [1] and in the data set with L6 were 0.57 µM and 46 µM, respectively. The selectivity ratio in data set [2] was 81. In addition, the solubility kinetic in data set [3] was found to be 17 µM (≈ 5.14 µg/mL). In data set [4], the intrinsic clearance came out at 4.8 mL/min/g.

As to `CC(C)[C@H]1CC[C@H](n2c(=O)[nH]c3ncc(N)cc3c2=O)CC1`, the EC50 in the data set with Trypanosoma cruzi [1] came out at 0.12 µM; in the data set on L6 it was 46 µM. For the same compound, the selectivity ratio in data set [2] is 380. Besides, the solubility kinetic in data set [3] amounted to 25 µM (≈ 7.56 µg/mL). Further, the intrinsic clearance in data set [4] was 1.9 mL/min/g.

Turning to `CC[C@H]1CC[C@@H](n2c(=O)[nH]c3ncc(NC(C)=O)cc3c2=O)CC1`, the EC50 in the data set with Trypanosoma cruzi [1] came to 0.33 µM; in the data set on L6 it was 48 µM. The selectivity ratio in data set [2] is 150. The solubility kinetic in [3] is 48 µM (≈ 15.9 µg/mL). In data set [4], the intrinsic clearance turned out to be 2.7 mL/min/g.

In the data set on Trypanosoma cruzi [1], `CC[C@H]1CC[C@@H](n2c(=O)[nH]c3ccc(N)cc3c2=O)CC1` showed an EC50 of 0.33 µM and an EC90 of 1.2 µg/mL (≈ 4.18 µM). Further, the EC50 in the data set on L6 was determined as 52 µM. For the same compound, in [2], the selectivity ratio turned out to be 160. Also, the solubility kinetic in data set [3] is greater than 350 µM. Besides, the intrinsic clearance in data set [4] was determined as 5.2 mL/min/g.

For the compound `CCC[C@H]1CC[C@@H](n2c(=O)[nH]c3ccc(NC(C)=O)cc3c2=O)CC1`, the results for the EC50 in the data set on Trypanosoma cruzi [1] and with L6 were 0.02 µM and 14 µM, respectively. Besides, the selectivity ratio in [2] is 700. For the same compound, the solubility kinetic in data set [3] was 102 µM (≈ 35 µg/mL). Also, the intrinsic clearance in [4] amounted to 19 mL/min/g.

`CC(=O)Nc1ccc2[nH]c(=O)n([C@H]3CO[C@@H](C(C)(C)C)OC3)c(=O)c2c1`: the EC50 in the data set with Trypanosoma cruzi [1] is 6.4 µM; in the data set with L6 it was 183 µM. For the same compound, the selectivity ratio in data set [2] was determined as 29. The solubility kinetic in [3] is greater than 270 µM. Also, the intrinsic clearance in [4] is 7.2 mL/min/g.

On to `CC(=O)Nc1cnc2[nH]c(=O)n([C@H]3CC[C@@H](C(C)(C)C)CC3)c(=O)c2c1`, for which the EC50 in the data set on Trypanosoma cruzi [1] was 0.1 µM; in the data set on L6, 15 µM. Besides, the selectivity ratio in data set [2] came to 150. In [3], the solubility kinetic is less than 28 µM. Besides, in data set [4], the intrinsic clearance was determined as 15 mL/min/g.

Take `CC[C@H]1CC[C@@H](n2c(=O)[nH]c3ncc(N)cc3c2=O)CC1`: the figures for the EC50 in the data set with Trypanosoma cruzi [1] and in the data set with L6 were 1.2 µM and 250 µM, respectively. Moreover, in data set [2], the selectivity ratio was 210. For the same compound, in data set [3], the solubility kinetic was less than 17 µM. Further, the intrinsic clearance in data set [4] stood at 1.7 mL/min/g.

As for `CC(=O)Nc1cnc2[nH]c(=O)n([C@H]3CC[C@@H](C(C)C)CC3)c(=O)c2c1`, the results for the EC50 in the data set with Trypanosoma cruzi [1] and in the data set with L6 were 0.38 µM and 16 µM, respectively. In addition, the selectivity ratio in [2] was found to be 42. Besides, in [3], the solubility kinetic is 15 µM (≈ 5.17 µg/mL). Further, the intrinsic clearance in [4] was found to be 10 mL/min/g.

For the compound `CC(=O)Nc1ccc2[nH]c(=O)n([C@H]3CC[C@@H](C(C)(C)C)CC3)c(=O)c2c1`, the EC50 was determined as 0.017 µM in the data set with Trypanosoma cruzi [1] and 5 µM with L6. In data set [2], the selectivity ratio was determined as 290. The solubility kinetic in data set [3] was determined as 95 µM (≈ 34 µg/mL). For the same compound, in data set [4], the intrinsic clearance was less than 0.5 mL/min/g.

As to `CC(C)(C)[C@H]1CC[C@H](n2c(=O)[nH]c3ccc(N)cc3c2=O)CC1`, the EC50 in the data set on Trypanosoma cruzi [1] is 0.063 µM; in the data set on L6, 21 µM. In data set [2], the selectivity ratio is 330. The intrinsic clearance in data set [4] amounted to 2 mL/min/g. The fraction unbound in data set [5] was 0.011. Moreover, in data set [6], the MTD turned out to be 30 mg/kg. Moreover, the outcome in the data set on Trypanosoma cruzi [7] and in the data set on Trypanosoma cruzi [8] was inactive.

As to `CC(C)(C)[C@H]1CC[C@@H](n2c(=O)[nH]c3ccc(N)cc3c2=O)CC1`, the solubility kinetic in data set [3] was found to be 240 µM (≈ 75.7 µg/mL). The intrinsic clearance in data set [4] was determined as 3.9 mL/min/g.

Take `CC(=O)Nc1ccc2[nH]c(=O)n([C@H]3CC[C@H](C(C)C)CC3)c(=O)c2c1`: the values for the EC50 with Trypanosoma cruzi [1] and in the data set with L6 were 0.026 µM and 3.8 µM, respectively. In the data set with Trypanosoma cruzi [1], this compound returned an EC90 of 0.038 µg/mL (≈ 0.111 µM). For the same compound, the selectivity ratio in [2] was 150. Also, the solubility kinetic in data set [3] turned out to be 73 µM (≈ 25.1 µg/mL). Besides, in data set [4], the intrinsic clearance was 3.2 mL/min/g. The same compound showed a fraction unbound in data set [5] of 0.028. The result with Trypanosoma cruzi [7] and in the data set on Trypanosoma cruzi [8] was Active.

For the compound `CC(=O)Nc1ccc2[nH]c(=O)n([C@H]3CC[C@H](C(C)(C)C)CC3)c(=O)c2c1`, the EC50 was found to be 0.022 µM in the data set with Trypanosoma cruzi [1] and 3.9 µM with L6. Further, the selectivity ratio in data set [2] is 180. Also, in [3], the solubility kinetic turned out to be 131 µM (≈ 46.8 µg/mL). Also, the intrinsic clearance in [4] amounted to 3.2 mL/min/g.

As for `CC[C@H]1CC[C@H](n2c(=O)[nH]c3ccc(NC(C)=O)cc3c2=O)CC1`, the values for the EC50 in the data set with Trypanosoma cruzi [1] and with L6 were 0.058 µM and 14 µM, respectively. The selectivity ratio in data set [2] worked out at 240. Besides, the solubility kinetic in [3] was 115 µM (≈ 37.9 µg/mL). Also, the intrinsic clearance in data set [4] stood at 2.4 mL/min/g.

With `CC[C@H]1CC[C@H](n2c(=O)[nH]c3ncc(N)cc3c2=O)CC1`, the figures for the EC50 in the data set with Trypanosoma cruzi [1] and with L6 were 0.34 µM and 51 µM, respectively. Also, in [2], the selectivity ratio turned out to be 150. Further, the solubility kinetic in data set [3] was 55 µM (≈ 15.9 µg/mL). Besides, in data set [4], the intrinsic clearance was found to be 0.9 mL/min/g.

Turning to `CC(=O)Nc1ccc2[nH]c(=O)n([C@H]3CC[C@@H](C(F)(F)F)CC3)c(=O)c2c1`, the values for the EC50 with Trypanosoma cruzi [1] and in the data set on L6 were 4.3 µM and 18 µM, respectively. Besides, the selectivity ratio in [2] was 4.2. The solubility kinetic in data set [3] came to 180 µM (≈ 66.5 µg/mL). The intrinsic clearance in [4] is 2.7 mL/min/g.

Consider `CCC[C@H]1CC[C@H](n2c(=O)[nH]c3ccc(NC(C)=O)cc3c2=O)CC1`, for which the concentration for a half-maximal effect (EC50) in the data set with Trypanosoma cruzi [1] is 0.015 µM; with L6, 11 µM. In addition, the selectivity ratio in data set [2] turned out to be 730. Besides, the solubility kinetic in data set [3] came out at 47 µM (≈ 16.1 µg/mL). For the same compound, in data set [4], the intrinsic clearance is 1.5 mL/min/g.

On to `CC(=O)Nc1cnc2[nH]c(=O)n([C@H]3CC[C@H](C(C)(C)C)CC3)c(=O)c2c1`, for which the EC50 in the data set with Trypanosoma cruzi [1] turned out to be 0.84 µM; in the data set on L6, 67 µM. For the same compound, the selectivity ratio in data set [2] was 80. Besides, in [3], the solubility kinetic was 310 µM (≈ 111 µg/mL). Besides, the intrinsic clearance in [4] came to 1.4 mL/min/g.
